{"source": "patent US20240261224A1", "about": "“FORMULATION OF A PAN-JAK INHIBITOR” (KINASET THERAPEUTICS, INC., priority 2022, published 2024)", "key": {"[1]": {"test_system": "serum eosinophil count", "experiment": "Phase 1 Part 3 serum (whole blood) differential eosinophil count", "type": "in vivo, human", "settings": "4 mg BID", "protocol": "Whole blood hematology samples were collected prior to dosing in all patients at Day 1 (baseline) and on Day 10. Parameters including whole blood absolute and percent differential eosinophil count were determined and the resultant data was used to determine change from baseline, mean change from baseline, and mean placebo-corrected change from baseline (Compound I vs placebo)."}, "[2]": {"experiment": "Margin of safety study versus 13-wk NHP NOAEL", "type": "in vivo", "description": "Results from the margin of safety study of lactose/MgSt-based formulations of Compound I are shown below in Table 17."}, "[3]": {"test_system": "fractional exhaled nitric oxide (FeNO)", "experiment": "Phase 1 Part 3: FeNO reduction in moderate to severe asthma on background ICS/LABA", "type": "in vivo, human", "settings": "for Mean Placebo-Corrected % Change from Day 1 Pre-Dose or from Patient's Baseline (FeNO): 4 mg BID (n = 5), Baseline FeNO >35 ppb and blood eosinophils >250 cells/μL; for % subjects achieving FeNO level <25 ppb on Day 10: 4.0 mg BID", "protocol": "A status summary of the phase 1 clinical trial recruitment is shown below in Table 18. Capsules filled with blend 2a were used to achieve a 0.6 mg target dose of Compound I (0.2 mg capsules×3). Capsules filled with blend 4 were used to achieve 2.0 mg, 4.0 mg, 6.0 mg, 8.0 mg, and 12.0 mg target doses of Compound I (2.0 mg capsule×1; 4.0 mg capsule×1; 2.0 mg capsules×3; 4.0 mg capsules×2; and 4.0 mg capsules×3, respectively). Twice daily dosing (BID) was achieved by repeating the preceding regime. For example, an 8.0 mg BID dosing regime is achieved by administering two doses of 4.0 mg capsules×2.\nParticular FeNO reduction data from FIG. 9 is highlighted below in Table 25. […] More specifically, subjects with Day 1 pre-dose FeNO levels between 33 and 280 ppb reported reductions greater than 20% by Day 10 and subjects with Day 1 pre-dose FeNO levels ranging from 33 to 118 ppb recorded levels less than 25 ppb by Day 10.\nPart 3 involved the administration of a single dose regimen (4 mg BID), to subjects (17 active:6 placebo) with moderate to severe asthma treated with background ISC/LABA therapy, over a 10-day period. Blood samples were collected to enable the measurement of KN-002 concentrations in plasma. The resultant data was used to determine the pharmacokinetic parameters at Day 10 representing the Day on which the final dose was received."}, "[4]": {"biological_target": "JAK1 (Homo sapiens, UniProt P23458)", "sequence (P23458 whole entry)": "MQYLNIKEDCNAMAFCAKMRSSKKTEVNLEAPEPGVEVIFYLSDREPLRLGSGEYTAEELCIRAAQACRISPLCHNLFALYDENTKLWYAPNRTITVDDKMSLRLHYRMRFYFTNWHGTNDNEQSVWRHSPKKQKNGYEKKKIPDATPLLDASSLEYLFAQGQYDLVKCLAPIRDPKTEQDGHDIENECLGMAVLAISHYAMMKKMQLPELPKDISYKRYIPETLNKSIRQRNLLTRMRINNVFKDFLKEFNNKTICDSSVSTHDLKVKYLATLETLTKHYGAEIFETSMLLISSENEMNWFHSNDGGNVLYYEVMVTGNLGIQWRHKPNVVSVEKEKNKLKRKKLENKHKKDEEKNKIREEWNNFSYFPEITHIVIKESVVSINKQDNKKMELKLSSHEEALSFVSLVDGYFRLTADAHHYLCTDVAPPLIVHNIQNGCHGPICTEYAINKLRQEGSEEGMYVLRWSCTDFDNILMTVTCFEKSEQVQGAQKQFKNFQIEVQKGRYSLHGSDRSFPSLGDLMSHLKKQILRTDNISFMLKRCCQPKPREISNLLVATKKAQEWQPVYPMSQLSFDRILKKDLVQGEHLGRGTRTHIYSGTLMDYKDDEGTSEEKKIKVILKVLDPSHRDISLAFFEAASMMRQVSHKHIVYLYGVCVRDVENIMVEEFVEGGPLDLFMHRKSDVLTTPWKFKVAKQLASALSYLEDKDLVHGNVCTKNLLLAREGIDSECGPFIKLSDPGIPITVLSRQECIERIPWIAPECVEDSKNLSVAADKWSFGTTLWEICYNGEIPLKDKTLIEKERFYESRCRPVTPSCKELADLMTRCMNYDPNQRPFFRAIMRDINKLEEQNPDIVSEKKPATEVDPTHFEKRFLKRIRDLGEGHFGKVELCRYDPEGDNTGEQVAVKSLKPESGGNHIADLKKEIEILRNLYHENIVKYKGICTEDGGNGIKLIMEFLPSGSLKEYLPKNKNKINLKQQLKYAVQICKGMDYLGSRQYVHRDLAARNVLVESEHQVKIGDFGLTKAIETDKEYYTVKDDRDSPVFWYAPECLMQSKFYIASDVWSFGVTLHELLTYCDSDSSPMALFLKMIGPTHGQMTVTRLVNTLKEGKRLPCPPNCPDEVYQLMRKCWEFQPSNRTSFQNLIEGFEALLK", "settings": "cited from earlier work"}, "[5]": {"settings": "Day 10, Mean of active subjects (n = 6)"}, "[6]": {"settings": "Day 10, individual active subjects 13026, 13027, 13038, 13073, 13095, 13097 (c1-c6)"}, "[7]": {"settings": "4.0 mg BID vs 13-week NHP study"}}, "note": "Several values for one entry are separate records, joined by “and”; a condition that tells them apart may be missing. Identical values can stand only once."}
{"smiles": "Cn1c(=O)n([C@H]2CCCN(C(=O)CC#N)C2)c2nc(-c3cnn4ccccc34)ccc21", "note": "[Compound I, (S)-3-(3-(1-methyl-2-oxo-5-(pyrazolo[1,5-a]pyridine-3-yl)-1H-imidazo[4,5-b]pyridine-3(2H)-yl)piperidin-1-yl)-3-oxopropanenitrile]", "values": [{"measurement": "Active subjects with improvements (decreases) from baseline in whole blood eosinophil count", "setting": "[1]; Day 10 (5/6)", "value": 83, "unit": "%"}, {"measurement": "Serum absolute differential eosinophil count, % Change from screening", "setting": "[1]; [5]", "value": "−29", "unit": "%"}, {"measurement": "Serum absolute differential eosinophil count, Change from Day 1 pre-dose", "setting": "[1]; [5]", "value": "−0.14", "unit": "cells 10^9/L"}, {"measurement": "Serum absolute differential eosinophil count, Mean placebo-corrected change", "setting": "[1]; Day 10, active (n = 6) vs placebo (n = 2)", "value": "−0.11", "unit": "cells 10^9/L"}, {"measurement": "Serum absolute differential eosinophil count, % Change from screening", "setting": "[1]; [6]", "value": "−45% and +54% and −43% and −4% and −32% and −74%"}, {"measurement": "Serum absolute differential eosinophil count, Change from Day 1 pre-dose", "setting": "[1]; [6]", "value": "−0.30 cells 10^9/L and 0.13 cells 10^9/L and −0.13 cells 10^9/L and −0.03 cells 10^9/L and −0.14 cells 10^9/L and −0.34 cells 10^9/L"}, {"measurement": "Serum absolute differential eosinophil count, Day 10 level", "setting": "[1]; Mean of active subjects (n = 6)", "value": 0.34, "unit": "cells 10^9/L"}, {"measurement": "Serum absolute differential eosinophil count, Day 10 level", "setting": "[1]; individual active subjects 13026, 13027, 13038, 13073, 13095, 13097 (c1-c6)", "value": "0.36 cells 10^9/L and 0.37 cells 10^9/L and 0.17 cells 10^9/L and 0.74 cells 10^9/L and 0.30 cells 10^9/L and 0.12 cells 10^9/L"}, {"measurement": "MoS versus inhalation toxicology study NOAELs, Lung exposure (mg/g lung)", "setting": "[2]; [7]", "value": 50}, {"measurement": "MoS versus inhalation toxicology study NOAELs, Plasma (group mean AUC0-24)", "setting": "[2]; [7]", "value": 3.2}, {"measurement": "Group mean AUC0-24 MoS (Phase 1 clinical study versus inhalation tox study NOAELs)", "setting": "[2]; 4.0 mg BID vs 13-wk NHP NOAEL", "value": 3.2}, {"measurement": "Lung dose of Compound I (mg/g) MoS", "setting": "[2]; 4.0 mg BID vs 13-wk NHP NOAEL, adjusted for respirability assuming 10%, 25% and 100% lung deposition in rat, NHP and human", "value": 50}, {"measurement": "Mean Placebo-Corrected % Change from Day 1 Pre-Dose or from Patient's Baseline (FeNO)", "setting": "[3]; Day 10 + 3 hrs", "value": "−37", "unit": "%"}, {"measurement": "Mean Placebo-Corrected % Change from Day 1 Pre-Dose or from Patient's Baseline (FeNO)", "setting": "[3]; Day 10 + 6 hrs", "value": "−43", "unit": "%"}, {"measurement": "Mean Placebo-Corrected % Change from Day 1 Pre-Dose or from Patient's Baseline (FeNO)", "setting": "[3]; Day 10 + 12 hrs", "value": "−47", "unit": "%"}, {"measurement": "Mean Placebo-Corrected % Change from Day 1 Pre-Dose or from Patient's Baseline (FeNO)", "setting": "[3]; Day 10 mean", "value": "−43", "unit": "%"}, {"measurement": "Mean Placebo-Corrected % Change from Day 1 Pre-Dose or from Patient's Baseline (FeNO)", "setting": "[3]; Day 10 pre-dose", "value": "−44", "unit": "%"}, {"measurement": "% subjects achieving FeNO level <25 ppb on Day 10", "setting": "[3]; ITT", "value": 59, "unit": "%"}, {"measurement": "Mean placebo-corrected % FeNO reduction from Day 1 pre-dose", "setting": "[3]; 4 mg BID, ITT (n = 17), Day 10 + 3 hours", "value": "−13.7", "unit": "%"}, {"measurement": "Mean placebo-corrected % FeNO reduction from Day 1 pre-dose", "setting": "[3]; 4 mg BID, ITT (n = 17), Day 10 + 6 hours", "value": "−24.0", "unit": "%"}, {"measurement": "Mean placebo-corrected % FeNO reduction from Day 1 pre-dose", "setting": "[3]; 4 mg BID, ITT (n = 17), Day 10 + 12 hours", "value": "−36.3", "unit": "%"}, {"measurement": "Mean placebo-corrected % FeNO reduction from Day 1 pre-dose", "setting": "[3]; 4 mg BID, ITT (n = 17), Day 10 mean", "value": "−24.2", "unit": "%"}, {"measurement": "Mean placebo-corrected % FeNO reduction from Day 1 pre-dose", "setting": "[3]; 4 mg BID, ITT (n = 17), Day 10 pre-dose", "value": "−22.9", "unit": "%"}, {"measurement": "% subjects achieving FeNO level <25 ppb on Day 10", "setting": "[3]; PP (excludes Day 1 pre-dose FeNO <30 ppb)", "value": 52, "unit": "%"}, {"measurement": "Mean placebo-corrected % FeNO reduction from Day 1 pre-dose", "setting": "[3]; 4 mg BID, PP (n = 15, excludes Day 1 pre-dose FeNO <30 ppb), Day 10 + 3 hours", "value": "−24.8", "unit": "%"}, {"measurement": "Mean placebo-corrected % FeNO reduction from Day 1 pre-dose", "setting": "[3]; 4 mg BID, PP (n = 15, excludes Day 1 pre-dose FeNO <30 ppb), Day 10 + 6 hours", "value": "−33.3", "unit": "%"}, {"measurement": "Mean placebo-corrected % FeNO reduction from Day 1 pre-dose", "setting": "[3]; 4 mg BID, PP (n = 15, excludes Day 1 pre-dose FeNO <30 ppb), Day 10 + 12 hours", "value": "−37.0", "unit": "%"}, {"measurement": "Mean placebo-corrected % FeNO reduction from Day 1 pre-dose", "setting": "[3]; 4 mg BID, PP (n = 15, excludes Day 1 pre-dose FeNO <30 ppb), Day 10 mean", "value": "−31.9", "unit": "%"}, {"measurement": "Mean placebo-corrected % FeNO reduction from Day 1 pre-dose", "setting": "[3]; 4 mg BID, PP (n = 15, excludes Day 1 pre-dose FeNO <30 ppb), Day 10 pre-dose", "value": "−32.7", "unit": "%"}, {"measurement": "FeNO reductions by Day 10", "setting": "[3]; 4 mg BID, subjects with Day 1 pre-dose FeNO levels between 33 and 280 ppb", "value": "greater than 20%"}, {"measurement": "FeNO levels by Day 10", "setting": "[3]; 4 mg BID, subjects with Day 1 pre-dose FeNO levels ranging from 33 to 118 ppb", "value": "less than 25 ppb"}, {"measurement": "Mean placebo-corrected change in FeNO from Day 1 pre-dose, blood eosinophil subgroup", "setting": "[3]; Blood eosinophil cut-off ≥0.15 × 10^9/L (n = 16), Day 10 + 3 hours", "value": "−26"}, {"measurement": "Mean placebo-corrected change in FeNO from Day 1 pre-dose, blood eosinophil subgroup", "setting": "[3]; Blood eosinophil cut-off ≥0.15 × 10^9/L (n = 16), Day 10 + 6 hours", "value": "−35"}, {"measurement": "Mean placebo-corrected change in FeNO from Day 1 pre-dose, blood eosinophil subgroup", "setting": "[3]; Blood eosinophil cut-off ≥0.15 × 10^9/L (n = 16), Day 10 + 12 hours", "value": "−52"}, {"measurement": "Mean placebo-corrected change in FeNO from Day 1 pre-dose, blood eosinophil subgroup", "setting": "[3]; Blood eosinophil cut-off ≥0.15 × 10^9/L (n = 16), Day 10 mean", "value": "−37"}, {"measurement": "Mean placebo-corrected change in FeNO from Day 1 pre-dose, blood eosinophil subgroup", "setting": "[3]; Blood eosinophil cut-off ≥0.15 × 10^9/L (n = 16), Day 10 pre-dose", "value": "−34"}, {"measurement": "Mean placebo-corrected change in FeNO from Day 1 pre-dose, blood eosinophil subgroup", "setting": "[3]; Blood eosinophil cut-off ≥0.3 × 10^9/L (n = 11), Day 10 + 3 hours", "value": "−44"}, {"measurement": "Mean placebo-corrected change in FeNO from Day 1 pre-dose, blood eosinophil subgroup", "setting": "[3]; Blood eosinophil cut-off ≥0.3 × 10^9/L (n = 11), Day 10 + 6 hours", "value": "−54"}, {"measurement": "Mean placebo-corrected change in FeNO from Day 1 pre-dose, blood eosinophil subgroup", "setting": "[3]; Blood eosinophil cut-off ≥0.3 × 10^9/L (n = 11), Day 10 + 12 hours", "value": "−75"}, {"measurement": "Mean placebo-corrected change in FeNO from Day 1 pre-dose, blood eosinophil subgroup", "setting": "[3]; Blood eosinophil cut-off ≥0.3 × 10^9/L (n = 11), Day 10 mean", "value": "−57"}, {"measurement": "Mean placebo-corrected change in FeNO from Day 1 pre-dose, blood eosinophil subgroup", "setting": "[3]; Blood eosinophil cut-off ≥0.3 × 10^9/L (n = 11), Day 10 pre-dose", "value": "−53"}, {"measurement": "Inhibition of JAK1", "setting": "[4]", "value": "potent inhibitor"}]}
